In patent US20220175693A1, “DIETARY SUPPLEMENT COMPRISING LUTEIN FOR TELOMERE PROTECTION, AND METHOD FOR PRODUCTION THEREOF” (BIOGEN EXTRACTS PRIVATE LIMITED, priority 2019, published 2022):

Test system: human adult primary fibroblast cells
Assay: Proliferative analysis (population doubling, cell counts per passage) under standard and oxidative stress conditions
Type: cell-based
Protocol: Analysis of cellular proliferation rate and telomere length in cultures of human adult primary fibroblast cells treated with lutein under standard and oxidative stress conditions. Primary cultures of adult human fibroblast were established. Cells are seeded at 2×10^3 cells/cm2 in GlutaMax™ high glucose Dulbecco's modified Eagle's medium (DMEM, Gibco®), and supplemented with 10% fetal bovine serum (FBS, HyClone, Thermo Scientific), penicillin (100 U/ml) and reptomycin (1000 U/ml). Media is renewed every 2-3 days and cells passaged at sub-confluence (70-80%) every 4-5 days. Compounds or vehicle control are added to the cells in culture. Cell growth is monitored for each condition by counting cell numbers at each passage using a Countess™ cell counter (Invitrogen). Population doubling (PD) was calculated with the formula PD=(log (Nn/Nn-1))/log 2 where n is the passage; and N the number of cells. One PD is equivalent to one round of cell replication. Eight independent condition were evaluated by proliferative Analysis: Standard cell culture condition+Lutein−10 μg/ml (LUT10) Standard cell culture condition+Lutein−5 μg/ml (LUT5) Standard cell culture condition+Lutein−1 μg/ml (LUT1) Standard cell culture condition+Lutein−10 μg/ml+10 μM H2O2 (LUT10+H2O2) Standard cell culture condition+Lutein−5 μg/ml+10 μM H2O2(LUT5+H2O2) Standard cell culture condition+Lutein−1 μg/ml+10 μM H2O2 (LUT1+H2O2) Cells were expanded during eight weeks under standard and oxidative (10 μM H2O2) cell culture condition as described previously. Fresh treatments were prepared and added to the cells at every passage and also when media was renewed. Stock solution of 10 mg/ml of the compound was prepared in DMSO and the different treatments were prepared from that stock.

[1] = Lutein 1 μg/ml + 10 μM H2O2, week 1 (P1)
[2] = Lutein 1 μg/ml + 10 μM H2O2, week 2 (P2)
[3] = Lutein 1 μg/ml + 10 μM H2O2, week 3 (P3)
[4] = Lutein 1 μg/ml + 10 μM H2O2, week 4 (P4)
[5] = Lutein 1 μg/ml + 10 μM H2O2, week 5 (P5)
[6] = Lutein 1 μg/ml + 10 μM H2O2, week 6 (P6)
[7] = Lutein 1 μg/ml + 10 μM H2O2, week 7 (P7)
[8] = Lutein 1 μg/ml + 10 μM H2O2, week 8 (P8)
[9] = Lutein 1 μg/ml, standard culture, week 1 (P1)
[10] = Lutein 1 μg/ml, standard culture, week 2 (P2)
[11] = Lutein 1 μg/ml, standard culture, week 3 (P3)
[12] = Lutein 1 μg/ml, standard culture, week 4 (P4)
[13] = Lutein 1 μg/ml, standard culture, week 5 (P5)
[14] = Lutein 1 μg/ml, standard culture, week 6 (P6)
[15] = Lutein 1 μg/ml, standard culture, week 7 (P7)
[16] = Lutein 1 μg/ml, standard culture, week 8 (P8)
[17] = Lutein 5 μg/ml + 10 μM H2O2, week 1 (P1)
[18] = Lutein 5 μg/ml + 10 μM H2O2, week 2 (P2)
[19] = Lutein 5 μg/ml + 10 μM H2O2, week 3 (P3)
[20] = Lutein 5 μg/ml + 10 μM H2O2, week 4 (P4)
[21] = Lutein 5 μg/ml + 10 μM H2O2, week 5 (P5)
[22] = Lutein 5 μg/ml + 10 μM H2O2, week 6 (P6)
[23] = Lutein 5 μg/ml + 10 μM H2O2, week 7 (P7)
[24] = Lutein 5 μg/ml + 10 μM H2O2, week 8 (P8)
[25] = Lutein 5 μg/ml, standard culture, week 1 (P1)
[26] = Lutein 5 μg/ml, standard culture, week 2 (P2)
[27] = Lutein 5 μg/ml, standard culture, week 3 (P3)
[28] = Lutein 5 μg/ml, standard culture, week 4 (P4)
[29] = Lutein 5 μg/ml, standard culture, week 5 (P5)
[30] = Lutein 5 μg/ml, standard culture, week 6 (P6)
[31] = Lutein 5 μg/ml, standard culture, week 7 (P7)
[32] = Lutein 5 μg/ml, standard culture, week 8 (P8)
[33] = Lutein 10 μg/ml + 10 μM H2O2, week 1 (P1)
[34] = Lutein 10 μg/ml + 10 μM H2O2, week 2 (P2)
[35] = Lutein 10 μg/ml + 10 μM H2O2, week 3 (P3)
[36] = Lutein 10 μg/ml + 10 μM H2O2, week 4 (P4)
[37] = Lutein 10 μg/ml + 10 μM H2O2, week 5 (P5)
[38] = Lutein 10 μg/ml + 10 μM H2O2, week 6 (P6)
[39] = Lutein 10 μg/ml + 10 μM H2O2, week 7 (P7)
[40] = Lutein 10 μg/ml + 10 μM H2O2, week 8 (P8)
[41] = Lutein 10 μg/ml, standard culture, week 1 (P1)
[42] = Lutein 10 μg/ml, standard culture, week 2 (P2)
[43] = Lutein 10 μg/ml, standard culture, week 3 (P3)
[44] = Lutein 10 μg/ml, standard culture, week 4 (P4)
[45] = Lutein 10 μg/ml, standard culture, week 5 (P5)
[46] = Lutein 10 μg/ml, standard culture, week 6 (P6)
[47] = Lutein 10 μg/ml, standard culture, week 7 (P7)
[48] = Lutein 10 μg/ml, standard culture, week 8 (P8)

## CC1=C[C@H](O)CC(C)(C)[C@H]1/C=C/C(C)=C/C=C/C(C)=C/C=C/C=C(C)/C=C/C=C(C)/C=C/C1=C(C)C[C@@H](O)CC1(C)C [Lutein]
[1]
  Cumulative Population Doubling per passage: 3.42
  Population Doubling per passage: 3.42
  Total number of cells per passage: 1.60E+06
[2]
  Cumulative Population Doubling per passage: 6.29
  Population Doubling per passage: 2.87
  Total number of cells per passage: 1.17E+07
[3]
  Cumulative Population Doubling per passage: 9.16
  Population Doubling per passage: 2.37
  Total number of cells per passage: 8.60E+07
Lutein 1 μg/ml + 10 μM H2O2, week 4
  Cumulative Population Doubling (Table 7A): 12.3
[4]
  Cumulative Population Doubling per passage: 12.28
  Population Doubling per passage: 3.12
  Total number of cells per passage: 7.46E+08
[5]
  Cumulative Population Doubling per passage: 14.76
  Population Doubling per passage: 2.49
  Total number of cells per passage: 4.18E+09
[6]
  Cumulative Population Doubling per passage: 17.41
  Population Doubling per passage: 2.65
  Total number of cells per passage: 2.62E+10
[7]
  Cumulative Population Doubling per passage: 18.41
  Population Doubling per passage: 1.00
  Total number of cells per passage: 5.23E+10
Lutein 1 μg/ml + 10 μM H2O2, week 8
  Cumulative Population Doubling (Table 7A): 20.7
[8]
  Cumulative Population Doubling per passage: 20.72
  Population Doubling per passage: 2.30
  Total number of cells per passage: 2.58E+11
[9]
  Cumulative Population Doubling per passage: 3.81
  Population Doubling per passage: 3.81
  Total number of cells per passage: 2.10E+06
[10]
  Cumulative Population Doubling per passage: 7.31
  Population Doubling per passage: 3.50
  Total number of cells per passage: 2.38E+07
[11]
  Cumulative Population Doubling per passage: 10.18
  Population Doubling per passage: 3.57
  Total number of cells per passage: 1.75E+08
Lutein 1 μg/ml, standard culture, week 4
  Cumulative Population Doubling (Table 7A): 13.7
[12]
  Cumulative Population Doubling per passage: 13.69
  Population Doubling per passage: 3.50
  Total number of cells per passage: 1.98E+09
[13]
  Cumulative Population Doubling per passage: 15.71
  Population Doubling per passage: 2.02
  Total number of cells per passage: 8.04E+09
[14]
  Cumulative Population Doubling per passage: 18.71
  Population Doubling per passage: 3.00
  Total number of cells per passage: 6.44E+10
[15]
  Cumulative Population Doubling per passage: 21.39
  Population Doubling per passage: 2.68
  Total number of cells per passage: 4.12E+11
Lutein 1 μg/ml, standard culture, week 8
  Cumulative Population Doubling (Table 7A): 24.1
[16]
  Cumulative Population Doubling per passage: 24.13
  Population Doubling per passage: 2.74
  Total number of cells per passage: 2.75E+12
[17]
  Cumulative Population Doubling per passage: 3.58
  Population Doubling per passage: 3.58
  Total number of cells per passage: 1.80E+06
[18]
  Cumulative Population Doubling per passage: 6.91
  Population Doubling per passage: 3.32
  Total number of cells per passage: 1.80E+07
[19]
  Cumulative Population Doubling per passage: 10.13
  Population Doubling per passage: 3.22
  Total number of cells per passage: 1.68E+08
Lutein 5 μg/ml + 10 μM H2O2, week 4
  Cumulative Population Doubling (Table 7A): 13.5
[20]
  Cumulative Population Doubling per passage: 13.54
  Population Doubling per passage: 3.42
  Total number of cells per passage: 1.79E+09
[21]
  Cumulative Population Doubling per passage: 15.70
  Population Doubling per passage: 2.16
  Total number of cells per passage: 8.00E+09
[22]
  Cumulative Population Doubling per passage: 17.84
  Population Doubling per passage: 2.14
  Total number of cells per passage: 3.52E+10
[23]
  Cumulative Population Doubling per passage: 20.71
  Population Doubling per passage: 2.87
  Total number of cells per passage: 2.58E+11
Lutein 5 μg/ml + 10 μM H2O2, week 8
  Cumulative Population Doubling (Table 7A): 23.1
[24]
  Cumulative Population Doubling per passage: 23.06
  Population Doubling per passage: 2.34
  Total number of cells per passage: 1.31E+12
[25]
  Cumulative Population Doubling per passage: 3.81
  Population Doubling per passage: 3.81
  Total number of cells per passage: 2.10E+06
[26]
  Cumulative Population Doubling per passage: 6.47
  Population Doubling per passage: 2.65
  Total number of cells per passage: 1.33E+07
[27]
  Cumulative Population Doubling per passage: 9.12
  Population Doubling per passage: 2.65
  Total number of cells per passage: 8.33E+07
Lutein 5 μg/ml, standard culture, week 4
  Cumulative Population Doubling (Table 7A): 12.5
[28]
  Cumulative Population Doubling per passage: 12.53
  Population Doubling per passage: 3.42
  Total number of cells per passage: 8.89E+09
[29]
  Cumulative Population Doubling per passage: 15.02
  Population Doubling per passage: 2.49
  Total number of cells per passage: 4.98E+09
[30]
  Cumulative Population Doubling per passage: 16.47
  Population Doubling per passage: 1.45
  Total number of cells per passage: 1.36E+10
[31]
  Cumulative Population Doubling per passage: 18.15
  Population Doubling per passage: 1.68
  Total number of cells per passage: 4.35E+10
Lutein 5 μg/ml, standard culture, week 8
  Cumulative Population Doubling (Table 7A): 21.3
[32]
  Cumulative Population Doubling per passage: 21.26
  Population Doubling per passage: 3.12
  Total number of cells per passage: 3.77E+11
[33]
  Cumulative Population Doubling per passage: 3.50
  Population Doubling per passage: 3.50
  Total number of cells per passage: 1.70E+06
[34]
  Cumulative Population Doubling per passage: 6.92
  Population Doubling per passage: 3.42
  Total number of cells per passage: 1.81E+07
[35]
  Cumulative Population Doubling per passage: 9.65
  Population Doubling per passage: 2.74
  Total number of cells per passage: 1.21E+08
Lutein 10 μg/ml + 10 μM H2O2, week 4
  Cumulative Population Doubling (Table 7A): 13.1
[36]
  Cumulative Population Doubling per passage: 13.07
  Population Doubling per passage: 3.42
  Total number of cells per passage: 1.29E+09
[37]
  Cumulative Population Doubling per passage: 14.97
  Population Doubling per passage: 1.90
  Total number of cells per passage: 4.81E+09
[38]
  Cumulative Population Doubling per passage: 16.97
  Population Doubling per passage: 2.00
  Total number of cells per passage: 1.93E+09
[39]
  Cumulative Population Doubling per passage: 18.52
  Population Doubling per passage: 1.55
  Total number of cells per passage: 5.65E+10
Lutein 10 μg/ml + 10 μM H2O2, week 8
  Cumulative Population Doubling (Table 7A): 20.8
[40]
  Cumulative Population Doubling per passage: 20.83
  Population Doubling per passage: 2.30
  Total number of cells per passage: 2.79E+11
[41]
  Cumulative Population Doubling per passage: 3.58
  Population Doubling per passage: 3.58
  Total number of cells per passage: 1.80E+06
[42]
  Cumulative Population Doubling per passage: 6.70
  Population Doubling per passage: 3.12
  Total number of cells per passage: 1.56E+07
[43]
  Cumulative Population Doubling per passage: 9.82
  Population Doubling per passage: 3.12
  Total number of cells per passage: 1.35E+08
Lutein 10 μg/ml, standard culture, week 4
  Cumulative Population Doubling (Table 7A): 13.3
[44]
  Cumulative Population Doubling per passage: 13.32
  Population Doubling per passage: 3.50
  Total number of cells per passage: 1.53E+09
[45]
  Cumulative Population Doubling per passage: 15.75
  Population Doubling per passage: 2.43
  Total number of cells per passage: 8.27E+09
[46]
  Cumulative Population Doubling per passage: 18.49
  Population Doubling per passage: 2.74
  Total number of cells per passage: 5.52E+10
[47]
  Cumulative Population Doubling per passage: 21.18
  Population Doubling per passage: 2.69
  Total number of cells per passage: 3.57E+11
Lutein 10 μg/ml, standard culture, week 8
  Cumulative Population Doubling (Table 7A): 23.9
[48]
  Cumulative Population Doubling per passage: 23.92
  Population Doubling per passage: 2.74
  Total number of cells per passage: 2.38E+12
Lutein 10, 5 and 1 μg/ml + 10 μM H2O2 (oxidative culture conditions), after eight weeks
  Proliferation rate compared to control group (H2O2): increase in proliferation rate
Lutein 10, 5 and 1 μg/ml, standard culture conditions, after eight weeks
  Proliferation rate compared to control (Ctrl): no difference
